The values that follow come from patent EP0302407A2, “Metallic complexes of streptogramin-B, their preparation and their use in animal food” (HOECHST AKTIENGESELLSCHAFT, priority 1987, dated 1989).

Marks after values point to notes of the source that are not given here.

Common to all, as to type: in vivo
The subject of one series is Mastküken. Description: Feeding trial with broiler chicks, Beispiel III (6 weeks). The conditions noted are these: 10 mg/kg Futter (ppm). An excerpt: (§1) Der Versuch lief über 6 Wochen. Futter und Trinkwasser wurden nach Belieben angeboten. Die Tiere wurden wöchentlich einzeln gewogen, die Lebendmasse(LM)-Zunahmen errechnet, die Futteraufnahme bestimmt und aus Futteraufnahme : LM-Zunahme der Futteraufwand errechnet. Die Mortalität wurde erfaßt und aus all diesen Parametern die Produktionszahl (PZ) errechnet. [formula]
In einem weiteren Mastküken-Versuch wurde der Einfluß von Etamycin-Zn-Komplex gemäß Beispiel 4 in einer Dosierung von 10 ppm im Vergleich zu einer Negativ-Kontrolle wie im Beispiel I geprüft. Zum Einsatz kamen 36 Mastküken (6 Wiederholungen x 6 Tiere), bei einer Versuchszeit von 6 Wochen. Haltungs- und Fütterungsbedingungen waren die gleichen wie im Beispiel I.

The test system of series [1] is männlichen Mastküken (Lohmann). Description: Feeding trial with broiler chicks, Beispiel II (42 days).
From the text: as §1
In einem Mastküken-Versuch über 42 Tage wurde mit 144 männlichen Mastküken (Lohmann) 3 x 48 Küken (8 Wiederholungen x 6 Tiere) der Einfluß von Etamycin-Cu-Komplex gemäß Beispiel I in Dosierungen von 5 und 10 ppm gegenüber Negativ-Kontrollen ohne Zusatz geprüft. Haltung und Fütterung waren die gleichen wie in Beispiel I.

For series [2], the system named is männlichen Mastküken. Description: Feeding trial with broiler chicks, Beispiel I (6 weeks). The note with it: for Mortalität: 60480 min.
From the text: Ein Fütterungsversuch mit Etamycin-Cu-Komplex gemäß Herstellungsbeispiel 2 wurde mit 120 männlichen Mastküken in 3 Gruppen zu je 40 Küken durchgeführt, die in beheizten Batterien (5 Küken bei 8 Wiederholungen) gehalten wurden. Folgende Präparate und Dosierungen wurden eingesetzt:
Das Grundfutter hatte eine handelsübliche Zusammensetzung mit 13,0 MJ/kg = 3100 kcal/kg und einem Rohproteingehalt von 22 %, bei einem normgerechten Aminosäuren-, Vitamin-, Mineralstoff- und Spurenelementgehalt.
as §1

Series [3] concerns männlichen Mastküken. In words: Feeding trial with broiler chicks, Beispiel IV (5 weeks). The note with it: for Mortalität: 50400 min.
From the text: as §1
Mit 96 männlichen Mastküken wurde in 3 Gruppen zu je 32 Mastküken (4 Wiederholungen x 8 Tiere) über 5 Wochen der Einfluß des Etamycin-Mn-Komplexes gemäß Beispiel 10 in Dosierungen von 5 und 10 ppm im Vergleich zu einer Negativ-Kontrolle (ohne Zusatz) geprüft. Die Haltungs- und Fütterungsbedingungen sowie die Auswertung waren die gleichen wie in Beispiel I.

[4] abbreviates: 5 mg/kg Futter (ppm), Futteraufnahme : LM-Zunahme.
Where [5] appears, read: 5 mg/kg Futter (ppm), control = 100.
Setting [6] is: 10 mg/kg Futter (ppm), Futteraufnahme : LM-Zunahme.
[7] abbreviates: 10 mg/kg Futter (ppm), control = 100.
The mark [8] stands for this setting: 20 mg/kg Futter (ppm), control = 100.

In the case of “Etamycin-Zn(II)-komplex (Et₂ x Zn(II)) [Etamycin-Zn-Komplex]”, in the series on Mastküken, the Futteraufnahme came to 3041 g, the LM-Zunahme was 1748 * g and the Produktionszahl came out at 228. For the same substance, the Mortalität with Mastküken (60480 min) is reported as 5,6%. For the same substance, the Futteraufwand in the series with Mastküken (Futteraufnahme : LM-Zunahme) was 1,74. Besides, in the series on Mastküken (control = 100), the Futteraufnahme is recorded as 102,5 rel.%, the Futteraufwand is given as 93,5 rel. % and the LM-Zunahme is 109,4 rel.%.
“Etamycin-Kupfer-(II)-komplex (Et₂ x Cu(II)) [Etamycin-Cu-Komplex]”: the Futteraufnahme in series [1] (5 mg/kg Futter (ppm)) is 3260 g; in series [1] (setting [5]), 106,3 rel.%; in series [1] (10 mg/kg Futter (ppm)), 3099 g; in series [1] (setting [7]), 101,0 rel.%; with männlichen Mastküken [2] (5 mg/kg Futter (ppm)), 2561 g; in the series with männlichen Mastküken [2] (setting [5]), 101,2 rel.%. Further, the results for the Futteraufnahme in the series with männlichen Mastküken [2] (20 mg/kg Futter (ppm)) and in the series on männlichen Mastküken [2] (setting [8]) were 2644 g and 104,5 rel.%, respectively. Further, the LM-Zunahme in series [1] (5 mg/kg Futter (ppm)) was 1699 * g; in series [1] (setting [5]), 109,0 rel.%; in series [1] (10 mg/kg Futter (ppm)), 1673 * g; in series [1] (setting [7]), 107,3 rel.%; with männlichen Mastküken [2] (5 mg/kg Futter (ppm)), 1439 * g; with männlichen Mastküken [2] (setting [5]), 109,0 rel.%. For the same substance, the LM-Zunahme was 1442 * g in the series on männlichen Mastküken [2] (20 mg/kg Futter (ppm)) and 109.2 rel.% with männlichen Mastküken [2] (setting [8]). The Mortalität in series [1] (5 mg/kg Futter (ppm)) was 2,1%; in series [1] (10 mg/kg Futter (ppm)) it was 6,3%; with männlichen Mastküken [2] (5 mg/kg Futter (ppm)) it was 20%; in the series on männlichen Mastküken [2] (20 mg/kg Futter (ppm)) it was 7,5%. In addition, the Produktionszahl in series [1] (5 mg/kg Futter (ppm)) worked out at 207; in series [1] (10 mg/kg Futter (ppm)), 202; in the series with männlichen Mastküken [2] (5 mg/kg Futter (ppm)), 154; with männlichen Mastküken [2] (20 mg/kg Futter (ppm)) it was 173. Besides, the Futteraufwand is 1,92 in series [1] (setting [4]); 97,5 rel. % in series [1] (setting [5]); 1,85 in series [1] (setting [6]); 93,9 rel. % in series [1] (setting [7]); 1,78 in the series on männlichen Mastküken [2] (setting [4]); 92,7 rel. % in the series on männlichen Mastküken [2] (setting [5]). Moreover, the Futteraufwand in the series on männlichen Mastküken [2] (20 mg/kg Futter (ppm), Futteraufnahme : LM-Zunahme) is given as 1,83; in the series with männlichen Mastküken [2] (setting [8]) it was 95,3 rel. %.
Take “Etamycin-Mangan (II)-komplex Et₂ x Mn(II) [Etamycin-Mn-Komplex]”: the Futteraufnahme is on record as 2334 g in the series with männlichen Mastküken [3] (5 mg/kg Futter (ppm)), 100 rel.% with männlichen Mastküken [3] (setting [5]), 2413 g with männlichen Mastküken [3] (10 mg/kg Futter (ppm)) and 103,4 rel.% with männlichen Mastküken [3] (setting [7]). The LM-Zunahme with männlichen Mastküken [3] (5 mg/kg Futter (ppm)) is listed as 1394 * g; with männlichen Mastküken [3] (setting [5]), 106,4 rel.%; in the series on männlichen Mastküken [3] (10 mg/kg Futter (ppm)), 1419 * g; in the series on männlichen Mastküken [3] (setting [7]), 108,3 rel.%. In addition, the Produktionszahl with männlichen Mastküken [3] (5 mg/kg Futter (ppm)) and in the series on männlichen Mastküken [3] (10 mg/kg Futter (ppm)) was 222 throughout. The Mortalität in the series on männlichen Mastküken [3] (5 mg/kg Futter (ppm)) and with männlichen Mastküken [3] (10 mg/kg Futter (ppm)) was 0% in each case. Moreover, the Futteraufwand was 1,67 with männlichen Mastküken [3] (setting [4]), 93,8 rel. % with männlichen Mastküken [3] (setting [5]), 1,70 in the series on männlichen Mastküken [3] (setting [6]) and 95,5 rel. % in the series on männlichen Mastküken [3] (setting [7]).
